In patent EP4737457A1, “POLYSUBSTITUTED MACROCYCLIC COMPOUND, AND PREPARATION METHOD THEREFOR AND USE THEREOF” (Shenzhen Salubris Pharmaceuticals Co., Ltd., priority 2023, dated 2025):

Key:
Human Factor XIa = Human Factor XIa (Homo sapiens, UniProt P03951); test: Inhibition of human coagulation Factor XIa by absorbance method (S-2366 substrate, 405 nm); type: biochemical; conditions: incubated at 37 °C for 20 minutes; substrate 800 µM; read-out: Recombinant Enzyme FXIa IC50
Method: • Enzyme: Human Factor XIa (ENZYME […], Cat. No. HFXIa 1111a) • Substrate: S-2366™ (CHROMOGENIX, Cat. No. 82109039) • Buffer: 145 mM NaCl, 5 mM KCl, 1 mg/mL PEG 8000, 30 mM HEPES, pH 7.4.
Test compounds dissolved in 100% DMSO at 10 mM were diluted with 100% DMSO to concentrations of 1000 µM, 200 µM, 40 µM, 8 µM, 1.6 µM, 0.32 µM, 0.064 µM, 0.0128 µM, 0.00256 µM, and […]. Then 98 µL of FXIa enzyme solution (77.7 ng/mL) was added to each well of a 96-well plate, with 98 µL of buffer added to blank wells instead. Then, 2 µL of compound at different concentrations was added; DMSO was used instead for blank and control wells. The plate was mixed using a plate shaker and incubated at 37 °C for 20 minutes.
Finally, 100 µL of substrate (800 µM) was added to each well, and the absorbance was measured at 405 nm.
Curve fitting was performed using GraphPad Prism software to calculate the IC50 values.

Pooled human plasma = test: In vitro anticoagulant effect in human plasma (aPTT, EC1.5x); type: biochemical; conditions: 37 °C for 10 minutes
Method: aPTT (Lot 220106600), Calcium Chloride (Lot 210305600), Needle Rinse Solution (Lot 211101300): produced by Shenzhen Mindray Bio-Medical Electronics Co., Ltd. Pooled human plasma: collected from healthy individuals using disposable venous blood collection tubes (Liuyang Sanli Medical Technology Development Co., Ltd., Lot 211108, sodium citrate 9:1). Blood was collected, centrifuged at room temperature at 3000 rpm for 10 minutes, and the supernatant was collected and stored for use (Lot 20220606).
Test compounds dissolved in 100% DMSO at 10 mM were diluted with 100% DMSO to concentrations of 0.29 µM, 0.59 µM, 1.17 µM, 2.34 µM, 4.69 µM, 9.38 µM, 18.75 µM, and 37.50 µM. Then 99 µL of pooled human plasma was added to each 1.5 mL centrifuge tube, followed by the addition of 1 µL of compound at different concentrations; 1 µL of DMSO was added to the blank control. The tubes were mixed by repeated manual inversion, centrifuged briefly using a mini centrifuge to collect the samples, and then incubated in a thermostatic water bath at 37 °C for 10 minutes with mixing. The aPTT was measured using a fully automated coagulation analyzer according to the preset program.
Curve fitting was performed using GraphPad Prism software to calculate EC1.5x.

[1] = Pharmacokinetic experiment in rats (iv and PO); conditions: male, Sprague-Dawley (SD), rat, plasma, 5 mg/kg
Source text: Polyethylene glycol 400 (PEG-400, Lot GORKREUT, Shaen Chemical Technology (Shanghai) Co., Ltd.), DMSO (Lot 20200319, Guangdong Guanghua Sci-Tech Co., Ltd.), normal saline (Lot C20052604, Jiangxi Kelun Pharmaceutical Co., Ltd.). LC-MS instrument (Thermo Fisher Ultimate 3000 UPLC, TSQ QUANTUM ULTRA triple quadrupole mass spectrometer, AB SCIEX 5500 QTARP).
SD rats: Male, 180-250 g, purchased from Guangdong Vital River Laboratory Animal Technology Co., Ltd.
The test compound powder was accurately weighed, completely dissolved in DMSO, then PEG-400 was added. The mixture was vortexed and sonicated to mix, followed by the addition of normal saline. The mixture was vortexed and sonicated again to achieve a final concentration of 0.5 mg/mL (DMSO:PEG-400:NS = 5:60:35, V/V/V). The dosing volume was 10 mL/kg for oral gavage and 0.5 mL/kg for intravenous administration.
After intravenous or oral administration to rats, 200 µL of venous blood was collected at 5 min (not collected for oral group), 15 min, 30 min, 1 h, 2 h, 5 h, 7 h, and 24 h into heparinized EP tubes. The blood was centrifuged at 12,000 rpm for 2 minutes, and the plasma was collected and stored at -80 °C until analysis.
A precise amount of the test compound was weighed and dissolved in DMSO to 1 mg/mL as a stock solution. An appropriate volume of the compound stock solution was accurately pipetted and diluted with acetonitrile to prepare standard series solutions. 20 µL of each standard series solution was accurately pipetted and added to 180 µL of blank plasma, vortexed to mix, to prepare plasma samples equivalent to plasma concentrations of 1 ng/mL, 3 ng/mL, 10 ng/mL, 30 ng/mL, 100 ng/mL, 300 ng/mL, 1000 ng/mL, 3000 ng/mL, and 5000 ng/mL. Each concentration was analyzed in duplicate to establish the standard curve. 20 µL of plasma sample was taken, and 200 µL of an internal standard (propranolol, 5 ng/mL) in acetonitrile solution was added. The mixture was vortexed and centrifuged at 4000 rpm for 5 minutes. The supernatant was taken for LC-MS analysis. The LC-MS detection conditions were as follows: Chromatographic Column: Waters ACQUITY™ PREMIER HSS T3, 50*2.1 mm, 1.8 µm.
Mobile phase A: water (0.1% formic acid), mobile phase B: acetonitrile, flow rate: 0.5 mL/min, gradient elution: see Table 2 below.
After determining the plasma drug concentration by LC-MS, the pharmacokinetic parameters following administration to rats were calculated using the non-compartmental model in WinNonlin 6.1 software.

Chain of Human Factor XIa (P03951 388-625 limits assumed): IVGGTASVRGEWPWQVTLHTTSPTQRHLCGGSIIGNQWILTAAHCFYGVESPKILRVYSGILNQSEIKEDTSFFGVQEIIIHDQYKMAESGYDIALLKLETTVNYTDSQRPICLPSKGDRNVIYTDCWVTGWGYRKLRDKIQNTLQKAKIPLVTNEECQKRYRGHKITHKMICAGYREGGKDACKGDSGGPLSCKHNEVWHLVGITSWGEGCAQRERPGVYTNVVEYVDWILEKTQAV
Chain of Human Factor XIa (P03951 19-387 partner limits assumed): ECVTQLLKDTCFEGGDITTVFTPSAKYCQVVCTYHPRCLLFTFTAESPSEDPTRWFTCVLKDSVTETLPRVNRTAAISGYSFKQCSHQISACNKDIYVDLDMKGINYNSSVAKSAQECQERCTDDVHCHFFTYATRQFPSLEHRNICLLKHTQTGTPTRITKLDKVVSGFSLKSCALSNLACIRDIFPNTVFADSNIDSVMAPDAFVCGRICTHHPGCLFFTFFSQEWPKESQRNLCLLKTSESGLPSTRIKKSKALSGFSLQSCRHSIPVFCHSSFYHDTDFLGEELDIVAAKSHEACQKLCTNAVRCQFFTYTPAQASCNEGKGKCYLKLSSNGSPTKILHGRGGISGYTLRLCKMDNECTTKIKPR

Row | SMILES | IC50 (Human Factor XIa) [pM] | Human Plasma APTT 1.5x (Pooled human plasma) [µM] | bioavailability [1] [%]
1 | [2H]C([2H])([2H])n1ncc2c1-c1cc(F)c(F)c(c1)[C@@H](n1cnc(-c3cc(Cl)ccc3-n3cc(C(F)(F)F)nn3)cc1=O)CCC[C@@H](C)C(=O)N2 [Compound 2, (3R,7R)-3-(4-(5-chloro-2-(4-(trifluoromethyl)-1H-1,2,3-triazol-1-yl)phenyl) -6-oxopyrimidin-1(6H)-yl)-2^42^5-difluoro-7-methyl-1^1-(methyl-d3)-1^1H-9-aza-1(5,4)-pyrazola-2(1,3)-benzenacyclononaphan-8-one] | 360 | 0.24 | 
2 | [2H]C([2H])([2H])n1ncc2c1-c1cc(F)c(F)c(c1)[C@@H](n1cnc(-c3c(-n4cc(Cl)nn4)ccc(Cl)c3F)cc1=O)CCC[C@@H](C)C(=O)N2 [Compound 3, (3S,7R)-3-(4-(3-chloro-6-(4-chloro-1H-1,2,3-triazol-1-yl)-2-fluorophenyl)-6-oxopyrimidin-1(6H)-yl)-2^4,2^5-difluoro-7-methyl-1^1-(methyl-d3)-1^1H-9-aza-1(5,4)-pyrazola-2(1,3)-benzenacyclononaphan-8-one] | 610 | 0.24 | 15.7
3 | [2H]C([2H])([2H])n1ncc2c1-c1cc(F)c(F)c(c1)[C@@H](n1ncc(-c3cc(Cl)ccc3-n3cc(C(F)(F)F)nn3)cc1=O)CCC[C@@H](C)C(=O)N2 [Compound 5, (3S,7R)-3-(4-(5-chloro-2-(4-(trifluoromethyl)-1H-1,2,3-triazol-1-yl)phenyl) -6-oxopyridazin-1(6H)-yl)-2^4,2^5-difluoro-7-methyl-1^1-(methyl-d3)-1^1H-9-aza-1(5,4)-pyrazola-2(1,3)-benzenacyclononaphan-8-one] | 890 | 0.83 | 
4 | [2H]C([2H])([2H])n1ncc2c1-c1cc(F)c(F)c(c1)[C@@H](n1ncc(-c3c(-n4cc(C(F)(F)F)nn4)ccc(Cl)c3F)c(Cl)c1=O)CCC[C@@H](C)C(=O)N2 [Compound 6, (3S,7R)-3-(5-chloro-4-(3-chloro-2-fluoro-6-(4-(trifluoromethyl)-1H-1,2,3-triazol-1-yl)phenyl)-6-oxopyridazin-1(6H)-yl)-2^42^5-difluoro-7-methyl-1^1-(methyl-d3)-1^1H-9-aza-1(5,4)-pyrazola-2(1,3)-benzenacyclononaphan-8-one] | 1060 | 0.43 | 14.1
5 | [2H]C([2H])([2H])n1ncc2c1-c1cc(F)c(F)c(c1)[C@@H](n1ccc(-c3cc(Cl)ccc3-n3cc(C(F)(F)F)nn3)cc1=O)CCC[C@@H](C)C(=O)N2 [Compound 7, (3S,7R)-3-(4-(5-chloro-2-(4-(trifluoromethyl)-1H-1,2,3-triazol-1-yl)phenyl) -2-oxopyridin-1(2H)-yl)-2^4,2^5-difluoro-7-methyl-1^1-(methyl-d3)-1^1H-9-aza-1(5,4)-pyrazola-2 (1,3)-benzenacyclononaphan-8-one] | 340 | 0.22 | 
6 | [2H]C([2H])([2H])n1ncc2c1-c1cc(F)c(F)c(c1)[C@@H](n1ccc(-c3cc(Cl)ccc3-n3cc(C(F)(F)F)nn3)c(Cl)c1=O)CCC[C@@H](C)C(=O)N2 [Compound 8, (3S,7R)-3-(4-(5-chloro-2-(4-(trifluoromethyl)-1H-1,2,3-triazol-1-yl)phenyl) -3-chloro-2-oxopyridin-1(2H)-yl)-2^4,2^5-difluoro-7-methyl-1^1-(methyl-d3)-1^1H-9-aza-1(5,4)-p yrazola-2(1,3)-benzenacyclononaphan-8-one] | 150 |  | 
7 | [2H]C([2H])([2H])n1ncc2c1-c1cc(F)c(F)c(c1)[C@@H](n1ccc(-c3cc(Cl)ccc3-n3cc(C(F)(F)F)nn3)c(F)c1=O)CCC[C@@H](C)C(=O)N2 [Compound 9, (3S,7R)-3-(4-(5-chloro-2-(4-(trifluoromethyl)-1H-1,2,3-triazol-1-yl)phenyl)-3-fluoro-2-oxopyridin-1(2H)-yl)-2^4,2^5-difluoro-7-methyl-1^1-(methyl-d3)-1^1H-9-aza-1 (5,4)-pyrazola-2(1,3)-benzenacyclononaphan-8-one] | 300 |  | 
8 | [2H]C([2H])([2H])n1ncc2c1-c1cc(F)c(F)c(c1)[C@@H](n1ccc(-c3cc(Cl)ccc3-n3cc(C(F)F)nn3)cc1=O)CCC[C@@H](C)C(=O)N2 [Compound 10, (3S,7R)-3-(4-(5-chloro-2-(4-(difluoromethyl)-1H-1,2,3-triazol-1-yl)phenyl)-2-oxopyridin-1(2H)-yl)-2^4,2^5-difluoro-7-methyl-1^1-(methyl-d3)-1^1H-9-aza-1(5,4)-pyrazola-2(1,3)-benzenacyclononaphan-8-one] | 770 | 0.20 | 
9 | C[C@@H]1CCC[C@H](n2cnc(-c3c(-n4cc(C(F)(F)F)nn4)ccc(Cl)c3F)cc2=O)c2cc(cc(F)c2F)-c2c(cnn2C(F)F)NC1=O [Compound 11, (3S,7R)-3-(4-(3-chloro-2-fluoro-6-(4-(trifluoromethyl)-1H-1,2,3-triazol-1-yl)phenyl)-6-oxopyrimidin-1(6H)-yl)-2^4,2^5-difluoro-7-methyl-1^1-difluoromethyl-1^1H-9-aza-1 (5,4)-pyrazola-2(1,3)-benzenacyclononaphan-8-one] | 290 | 0.23 | 21.6
10 | C[C@@H]1CCC[C@H](n2cnc(-c3c(-n4cc(Cl)nn4)ccc(Cl)c3F)cc2=O)c2cc(cc(F)c2F)-c2c(cnn2C(F)F)NC1=O [Compound 13, (3S,7R)-3-(4-(3-chloro-6-(4-chloro-1H-1,2,3-triazol-1-yl)-2-fluorophenyl)-6-oxopyrimidin-1(6H)-yl)-2^4,2^5-difluoro-7-methyl-1^1-difluoromethyl-1^1H-9-aza-1(5,4)-pyraz ola-2(1,3)-benzenacyclononaphan-8-one] | 400 |  | 
11 | C[C@@H]1CCC[C@H](n2cnc(-c3cc(Cl)ccc3-n3cc(Cl)nn3)cc2=O)c2cc(cc(F)c2F)-c2c(cnn2C(F)F)NC1=O [Compound 14, (3S,7R)-3-(4-(5-chloro-2-(4-chloro-1H-1,2,3-triazol-1-yl)phenyl)-6-oxopyrimidin-1(6H)-yl)-2^4,2^5-difluoro-7-methyl-1^1-difluoromethyl-1^1H-9-aza-1(5,4)-pyrazol a-2(1,3)-benzenacyclononaphan-8-one] | 380 |  | 
